Results from ChEMBL document CHEMBL1201862, “PubChem BioAssay data set” (2004).
Active and inactive are the calls of the source.

What was measured:
[1] = molecular target: T1, Sentrin-specific protease 6 (Homo sapiens, UniProt Q9GZR1); assay type: functional;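 further: Luminescence-based dose-response confirmatory assay of SENP6 inhibition, following up an ultra-high-throughput screen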
T1 sequence (Q9GZR1 whole entry): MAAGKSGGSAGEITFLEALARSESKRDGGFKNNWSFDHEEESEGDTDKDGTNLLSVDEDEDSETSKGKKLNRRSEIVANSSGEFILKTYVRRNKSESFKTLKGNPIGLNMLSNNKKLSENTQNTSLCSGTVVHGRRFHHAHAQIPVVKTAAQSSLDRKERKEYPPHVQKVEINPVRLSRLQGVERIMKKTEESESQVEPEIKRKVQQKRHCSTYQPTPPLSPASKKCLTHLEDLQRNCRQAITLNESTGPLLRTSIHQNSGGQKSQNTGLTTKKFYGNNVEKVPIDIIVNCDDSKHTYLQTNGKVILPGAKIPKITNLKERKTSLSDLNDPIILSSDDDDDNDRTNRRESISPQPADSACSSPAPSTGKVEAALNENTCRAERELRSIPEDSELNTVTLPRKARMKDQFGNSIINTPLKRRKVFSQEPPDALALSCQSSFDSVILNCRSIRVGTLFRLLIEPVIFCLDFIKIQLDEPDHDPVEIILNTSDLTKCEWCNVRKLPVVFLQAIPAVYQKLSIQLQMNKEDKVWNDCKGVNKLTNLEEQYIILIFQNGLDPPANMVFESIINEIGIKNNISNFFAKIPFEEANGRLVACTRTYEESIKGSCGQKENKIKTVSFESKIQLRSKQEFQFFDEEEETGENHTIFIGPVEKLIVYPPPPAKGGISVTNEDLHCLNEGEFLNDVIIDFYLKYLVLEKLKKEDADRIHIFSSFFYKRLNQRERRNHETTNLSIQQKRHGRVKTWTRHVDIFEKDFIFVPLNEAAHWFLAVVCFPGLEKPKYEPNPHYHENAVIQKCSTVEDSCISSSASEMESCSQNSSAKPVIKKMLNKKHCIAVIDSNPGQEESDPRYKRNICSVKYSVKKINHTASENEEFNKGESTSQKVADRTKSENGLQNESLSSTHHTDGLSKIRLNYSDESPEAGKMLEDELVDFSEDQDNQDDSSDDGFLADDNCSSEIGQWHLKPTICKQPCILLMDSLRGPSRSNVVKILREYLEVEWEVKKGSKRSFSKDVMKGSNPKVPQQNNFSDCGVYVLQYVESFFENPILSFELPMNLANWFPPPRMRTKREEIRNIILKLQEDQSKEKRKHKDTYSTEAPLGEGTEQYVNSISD

[2] = molecular target: T2, Sentrin-specific protease 8 (Homo sapiens, UniProt Q96LD8); assay type: functional;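 further: luminescence read-out of SENP8 inhibition, dose-response confirmation following an ultra-high-throughput screen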
T2 sequence (Q96LD8 whole entry): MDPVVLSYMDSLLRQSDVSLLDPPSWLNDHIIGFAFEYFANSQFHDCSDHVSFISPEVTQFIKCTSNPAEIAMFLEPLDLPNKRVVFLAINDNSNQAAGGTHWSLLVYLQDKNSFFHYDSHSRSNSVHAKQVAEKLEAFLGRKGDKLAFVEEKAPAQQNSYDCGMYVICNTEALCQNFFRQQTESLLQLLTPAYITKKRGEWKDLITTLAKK

[3] = test system: BJ; assay: BJ-TERT fibroblast viability loss – cell-based, RAS-independent, luminescence, dose response (AID 1933); assay type: functional; details: Homo sapiens
[4] = molecular target: Luciferin 4-monooxygenase (Photinus pyralis, UniProt P08659); assay: inhibition of purified Photinus pyralis luciferase – biochemical, luminescence, dose response (AID 1891)
[5] = molecular target: Heat shock protein HSP 90-alpha (Homo sapiens, UniProt P07900); assay type: functional, organism-based
[6] = test system: INS1; assay: INS-1E survival protection against cytokine death – cell-based, luminescence, retest, dose response (AID 449756); assay type: functional; details: Rattus norvegicus;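 further: cell death triggered by IL-1 beta plus TNF-alpha plus IFN-gamma mixture; protective hits raise ATP signal compared with cytokine alone wells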
[7] = molecular target: T3, Caspase-7 (Homo sapiens, UniProt P55210); assay: caspase-7 enzyme inhibition, selectivity check – biochemical, DEVD-R110 fluorescence, cherry-pick, selectivity assay for caspase-6 inhibitor project, dose response (AID 743295); assay type: functional
T3 sequence (P55210 whole entry): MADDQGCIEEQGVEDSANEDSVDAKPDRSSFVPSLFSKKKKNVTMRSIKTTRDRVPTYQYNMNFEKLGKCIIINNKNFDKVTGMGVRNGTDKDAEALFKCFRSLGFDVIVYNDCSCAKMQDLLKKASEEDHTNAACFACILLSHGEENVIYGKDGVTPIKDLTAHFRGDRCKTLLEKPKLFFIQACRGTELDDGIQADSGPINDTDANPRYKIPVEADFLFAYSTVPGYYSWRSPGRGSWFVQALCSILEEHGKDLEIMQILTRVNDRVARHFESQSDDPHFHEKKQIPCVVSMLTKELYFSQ

[8] = reduction of Shn3 3'UTR-driven luciferase in osteoblasts – cell-based, Clone20 osteoblasts, firefly luciferase, cherry-picked, dose response (AID 624132); assay type: functional;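 further: firefly luciferase luminescence from reporter carrying the Shn3 3'UTR in osteoblasts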
[9] = molecular target: Paired box protein Pax-8 (Homo sapiens, UniProt Q06710); assay: PAX8 transcriptional activity inhibition in RMG-I – RMG-I cells, luciferase, cherry-pick, dose response (AID 687027); assay type: functional, cell-based;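 further: luciferase reporter driven by Pax8 target thyroperoxidase promoter measured by SteadyGlo luminescence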
[10] = molecular target: Serine/threonine-protein kinase PAK 1 (Homo sapiens, UniProt Q13153); assay type: functional
[11] = molecular target: Insulin receptor (Homo sapiens, UniProt P06213); assay type: functional;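 further: insulin receptor kinase tested as one member of a kinome-wide kinase panel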
[12] = molecular target: Protein kinase C gamma type (Homo sapiens, UniProt P05129); assay type: functional
[13] = molecular target: Receptor-type tyrosine-protein kinase FLT3 (Homo sapiens, UniProt P36888); assay type: functional;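 further: FLT3 was tested as one member of a kinome-wide kinase panel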
[14] = molecular target: Receptor tyrosine-protein kinase erbB-2 (Homo sapiens, UniProt P04626); assay: Navigating the Kinome. Panel member name: ERBB2; assay type: functional
[15] = molecular target: Vascular endothelial growth factor receptor 2 (Homo sapiens, UniProt P35968); assay type: functional
[16] = molecular target: Maternal embryonic leucine zipper kinase (Homo sapiens, UniProt Q14680); assay type: functional
[17] = molecular target: Interleukin-1 receptor-associated kinase 4 (Homo sapiens, UniProt Q9NWZ3); assay type: functional
[18] = molecular target: Cyclin-dependent kinase 1 (Homo sapiens, UniProt P06493); assay type: functional;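 further: Kinome-wide panel profiling, with the target listed as panel member CDC2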
[19] = molecular target: Serine/threonine-protein kinase DCLK1 (Homo sapiens, UniProt O15075); assay type: functional;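 further: affinity for DCLK1 (listed as DCAMKL1) measured as one member of a kinome-wide kinase profiling panel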
[20] = molecular target: Vascular endothelial growth factor receptor 1 (Homo sapiens, UniProt P17948); assay type: functional;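 further: measured within a kinome-wide profiling panel, FLT1 as the panel member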
[21] = molecular target: BDNF/NT-3 growth factors receptor (Homo sapiens, UniProt Q16620); assay type: functional;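 further: NTRK2 measured as one member of a broad kinome-wide kinase profiling panel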
[22] = molecular target: Dual specificity tyrosine-phosphorylation-regulated kinase 1A (Homo sapiens, UniProt Q13627); assay type: functional;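 further: measured against DYRK1A as one member of a broad kinome profiling panel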
[23] = molecular target: Tyrosine-protein kinase receptor UFO (Homo sapiens, UniProt P30530); assay type: functional
Sequence of Tyrosine-protein kinase receptor UFO (P30530 whole entry): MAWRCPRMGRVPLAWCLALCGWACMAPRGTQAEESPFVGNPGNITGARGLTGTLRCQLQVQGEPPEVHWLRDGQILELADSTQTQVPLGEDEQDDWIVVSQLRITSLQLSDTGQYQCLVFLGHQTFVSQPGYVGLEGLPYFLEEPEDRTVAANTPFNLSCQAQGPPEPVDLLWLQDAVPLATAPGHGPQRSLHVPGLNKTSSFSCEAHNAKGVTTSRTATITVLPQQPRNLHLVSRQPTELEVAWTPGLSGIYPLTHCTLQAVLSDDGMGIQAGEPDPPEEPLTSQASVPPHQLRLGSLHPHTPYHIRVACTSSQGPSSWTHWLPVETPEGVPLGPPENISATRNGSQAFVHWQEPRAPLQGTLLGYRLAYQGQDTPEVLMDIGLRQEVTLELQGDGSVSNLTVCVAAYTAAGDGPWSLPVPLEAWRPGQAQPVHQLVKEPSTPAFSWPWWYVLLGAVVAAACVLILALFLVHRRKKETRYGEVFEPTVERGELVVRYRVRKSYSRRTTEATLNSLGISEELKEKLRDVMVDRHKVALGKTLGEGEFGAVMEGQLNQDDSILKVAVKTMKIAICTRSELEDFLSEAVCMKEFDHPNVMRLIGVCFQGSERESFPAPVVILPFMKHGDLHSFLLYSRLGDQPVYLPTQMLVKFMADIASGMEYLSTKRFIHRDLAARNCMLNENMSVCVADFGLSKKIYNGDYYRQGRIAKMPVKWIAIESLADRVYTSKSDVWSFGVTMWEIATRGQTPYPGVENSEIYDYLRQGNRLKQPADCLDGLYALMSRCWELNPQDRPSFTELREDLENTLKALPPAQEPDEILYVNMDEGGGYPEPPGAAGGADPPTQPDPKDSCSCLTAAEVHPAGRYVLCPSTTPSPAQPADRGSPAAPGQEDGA

Sequence of Interleukin-1 receptor-associated kinase 4 (Q9NWZ3 whole entry): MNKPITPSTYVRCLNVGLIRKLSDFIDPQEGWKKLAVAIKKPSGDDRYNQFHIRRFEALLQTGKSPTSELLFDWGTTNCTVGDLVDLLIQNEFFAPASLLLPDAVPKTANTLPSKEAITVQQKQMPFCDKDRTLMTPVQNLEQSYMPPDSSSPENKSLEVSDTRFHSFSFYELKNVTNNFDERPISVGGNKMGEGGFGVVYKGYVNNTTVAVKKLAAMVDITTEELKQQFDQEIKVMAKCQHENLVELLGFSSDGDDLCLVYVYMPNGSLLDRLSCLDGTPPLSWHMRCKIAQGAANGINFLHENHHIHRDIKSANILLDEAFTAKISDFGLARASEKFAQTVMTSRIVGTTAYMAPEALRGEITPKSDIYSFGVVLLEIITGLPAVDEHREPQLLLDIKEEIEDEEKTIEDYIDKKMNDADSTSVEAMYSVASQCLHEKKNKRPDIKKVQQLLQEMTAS
Sequence of Insulin receptor (P06213 28-758 limits assumed): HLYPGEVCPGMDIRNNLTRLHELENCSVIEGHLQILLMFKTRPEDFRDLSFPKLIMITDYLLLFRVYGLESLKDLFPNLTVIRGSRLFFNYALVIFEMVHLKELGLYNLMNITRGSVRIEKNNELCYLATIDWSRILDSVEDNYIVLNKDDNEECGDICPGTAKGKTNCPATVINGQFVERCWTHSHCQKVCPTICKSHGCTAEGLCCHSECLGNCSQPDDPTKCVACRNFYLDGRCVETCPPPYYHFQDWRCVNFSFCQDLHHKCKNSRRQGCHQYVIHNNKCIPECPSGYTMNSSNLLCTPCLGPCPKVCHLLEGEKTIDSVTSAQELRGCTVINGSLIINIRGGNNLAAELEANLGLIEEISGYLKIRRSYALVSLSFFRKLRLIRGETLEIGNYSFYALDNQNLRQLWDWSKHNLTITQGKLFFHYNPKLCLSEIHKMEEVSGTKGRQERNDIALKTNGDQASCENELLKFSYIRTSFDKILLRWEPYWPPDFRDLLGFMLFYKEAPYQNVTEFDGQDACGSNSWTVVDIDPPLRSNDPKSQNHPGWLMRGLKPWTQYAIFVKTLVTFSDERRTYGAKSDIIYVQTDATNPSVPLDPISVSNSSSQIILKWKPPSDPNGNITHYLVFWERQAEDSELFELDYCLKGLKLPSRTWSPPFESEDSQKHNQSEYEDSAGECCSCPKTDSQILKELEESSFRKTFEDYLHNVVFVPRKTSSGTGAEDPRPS
Sequence of Insulin receptor (P06213 763-1382 limits assumed): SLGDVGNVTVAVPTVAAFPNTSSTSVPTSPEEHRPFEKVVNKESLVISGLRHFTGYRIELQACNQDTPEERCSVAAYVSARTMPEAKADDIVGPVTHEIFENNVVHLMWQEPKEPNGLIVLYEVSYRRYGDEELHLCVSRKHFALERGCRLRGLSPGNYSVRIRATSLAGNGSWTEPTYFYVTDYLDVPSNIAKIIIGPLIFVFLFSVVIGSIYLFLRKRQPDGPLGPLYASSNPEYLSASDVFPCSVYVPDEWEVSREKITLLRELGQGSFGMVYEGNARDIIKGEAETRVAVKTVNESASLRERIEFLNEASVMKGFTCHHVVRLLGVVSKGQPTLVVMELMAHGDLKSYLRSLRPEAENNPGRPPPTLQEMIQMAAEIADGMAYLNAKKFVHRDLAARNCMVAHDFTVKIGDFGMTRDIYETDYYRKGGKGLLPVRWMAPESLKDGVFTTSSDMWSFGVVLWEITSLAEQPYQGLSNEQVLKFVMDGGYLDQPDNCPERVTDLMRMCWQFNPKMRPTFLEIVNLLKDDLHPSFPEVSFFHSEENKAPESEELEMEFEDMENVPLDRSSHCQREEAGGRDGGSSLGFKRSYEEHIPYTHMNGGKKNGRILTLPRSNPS
Sequence of Vascular endothelial growth factor receptor 2 (P35968 whole entry): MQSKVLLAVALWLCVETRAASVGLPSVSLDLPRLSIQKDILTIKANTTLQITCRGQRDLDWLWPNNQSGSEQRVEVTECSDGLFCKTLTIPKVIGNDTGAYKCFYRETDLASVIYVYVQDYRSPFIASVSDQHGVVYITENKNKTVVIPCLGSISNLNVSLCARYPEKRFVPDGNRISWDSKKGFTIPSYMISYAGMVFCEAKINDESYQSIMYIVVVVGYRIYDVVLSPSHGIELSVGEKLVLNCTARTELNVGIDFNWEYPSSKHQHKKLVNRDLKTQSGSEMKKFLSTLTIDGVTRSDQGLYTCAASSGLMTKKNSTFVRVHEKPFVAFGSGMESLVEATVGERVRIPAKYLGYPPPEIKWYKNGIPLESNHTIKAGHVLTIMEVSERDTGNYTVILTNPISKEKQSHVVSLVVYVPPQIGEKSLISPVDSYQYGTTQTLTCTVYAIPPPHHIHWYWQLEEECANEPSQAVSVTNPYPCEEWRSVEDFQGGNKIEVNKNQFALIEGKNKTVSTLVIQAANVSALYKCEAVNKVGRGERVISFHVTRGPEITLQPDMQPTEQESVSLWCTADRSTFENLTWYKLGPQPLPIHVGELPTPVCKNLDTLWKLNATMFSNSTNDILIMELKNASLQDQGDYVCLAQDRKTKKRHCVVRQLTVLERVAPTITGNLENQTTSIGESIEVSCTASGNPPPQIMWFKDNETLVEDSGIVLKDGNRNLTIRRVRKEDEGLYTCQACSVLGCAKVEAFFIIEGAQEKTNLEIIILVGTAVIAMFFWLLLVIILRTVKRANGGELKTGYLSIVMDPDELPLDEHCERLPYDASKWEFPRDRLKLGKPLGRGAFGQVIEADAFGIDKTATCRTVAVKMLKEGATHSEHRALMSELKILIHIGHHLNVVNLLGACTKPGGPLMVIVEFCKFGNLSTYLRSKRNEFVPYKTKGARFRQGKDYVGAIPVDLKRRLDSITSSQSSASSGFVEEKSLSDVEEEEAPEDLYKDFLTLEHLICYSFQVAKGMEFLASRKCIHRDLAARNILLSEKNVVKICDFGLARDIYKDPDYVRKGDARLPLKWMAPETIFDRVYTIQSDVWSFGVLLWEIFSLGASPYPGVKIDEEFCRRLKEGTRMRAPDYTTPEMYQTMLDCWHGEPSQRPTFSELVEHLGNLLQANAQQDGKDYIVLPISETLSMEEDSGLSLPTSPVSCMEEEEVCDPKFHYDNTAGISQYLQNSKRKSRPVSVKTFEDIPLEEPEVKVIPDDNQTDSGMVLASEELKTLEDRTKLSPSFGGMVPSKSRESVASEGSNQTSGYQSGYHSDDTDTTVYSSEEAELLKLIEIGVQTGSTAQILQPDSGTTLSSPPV
Sequence of Cyclin-dependent kinase 1 (P06493 whole entry): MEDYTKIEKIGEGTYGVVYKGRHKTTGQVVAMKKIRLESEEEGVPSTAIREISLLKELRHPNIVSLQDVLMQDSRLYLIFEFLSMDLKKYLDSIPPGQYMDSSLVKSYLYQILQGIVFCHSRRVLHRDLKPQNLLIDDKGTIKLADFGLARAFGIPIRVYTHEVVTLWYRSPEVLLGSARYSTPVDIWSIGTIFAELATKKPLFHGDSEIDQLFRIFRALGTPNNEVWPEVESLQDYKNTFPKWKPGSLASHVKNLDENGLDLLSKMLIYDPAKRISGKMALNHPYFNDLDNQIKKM

Cc1ccc(C(=O)NC2(O)C(=O)c3ccccc3C2=O)cc1C
IC50 [1]: 3.48 µM (active) | IC50 [2]: 4.89 µM (active)

O=[N+]([O-])c1c(Nc2ccccn2)cc(Cl)c2nonc12
EC50 [3]: 5.14 µM (inconclusive) | EC50 [4]: > 112 µM (not active) | AC50 [5]: 1.93 µM (active) | AC50 [6]: 6.13 µM (active) | AC50 [7]: 20.3 µM (active)

CC[C@@H](C)[C@H](CNC)NC[C@@H](Cc1cccc2ccccc12)NCCc1cccc(C(F)(F)F)c1
AC50 [8]: 8.08 µM (active) | AC50 [9]: 11.9 µM (active)

CC(C)(CO)CNc1nccc(-c2c(-c3ccc(F)cc3)nc3c(CC4CC4)nccn23)n1
Ki [10]: > 10 µM (inactive) | Ki [11]: > 5.01 µM (inactive) | Ki [12]: > 7.94 µM (inactive) | Ki [13]: > 2.51 µM (inactive) | Ki [14]: > 1.58 µM (inactive) | Ki [15]: > 7.94 µM (inactive) | Ki [16]: > 1.58 µM (inactive) | Ki [17]: > 10 µM (inactive) | Ki [18]: > 7.94 µM (inactive) | Ki [19]: > 10 µM (inactive) | Ki [20]: > 0.398 µM (inactive) | Ki [21]: > 5.01 µM (inactive) | Ki [22]: 2.51 µM (active) | Ki [23]: > 2 µM (inactive)
